Data published in PubChem BioAssay AID1919004 (Molecular Pharmacology Branch, DTP, NCI, 2023).
Several values for one entry are separate records, joined by “and”; a condition that tells them apart may be missing. Equal entries are not always repeated.

Tested on: 883617-216-R-J1-PDC complex spheroids, growth, % test/control
Assay: Anticancer human tumor 883617-216-R-J1-PDC patient-derived bladder carcinoma cell line growth inhibition [AhR]
Details: for viability, T/C: stronger effect = lower value
How it was run: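 Complex tumor spheroids co-cultured with HUVEC and human MSC stroma; AhR antagonists tested in combination with standard-of-care and investigational agents. Top concentration at or near clinical Cmax (else 10 microM), half-log dilutions; growth expressed as percent test/control.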

[1] = curve of first compound, second compound 0.1 µM
[2] = curve of first compound, second compound 0.316 µM
[3] = curve of first compound, second compound 1 µM
[4] = curve of first compound, second compound 3.16 µM
[5] = curve of first compound, second compound 10 µM
[6] = second compound 0.1 µM, first compound 0.0316 µM
[7] = second compound 0.1 µM, first compound 0.1 µM
[8] = second compound 0.1 µM, first compound 0.316 µM
[9] = second compound 0.1 µM, first compound 1 µM
[10] = second compound 0.1 µM, first compound 3.16 µM
[11] = second compound 0.1 µM, first compound 10 µM
[12] = second compound 0.316 µM, first compound 0.0316 µM
[13] = second compound 0.316 µM, first compound 0.1 µM
[14] = second compound 0.316 µM, first compound 0.316 µM
[15] = second compound 0.316 µM, first compound 1 µM
[16] = second compound 0.316 µM, first compound 3.16 µM
[17] = second compound 0.316 µM, first compound 10 µM
[18] = second compound 1 µM, first compound 0.0316 µM
[19] = second compound 1 µM, first compound 0.1 µM
[20] = second compound 1 µM, first compound 0.316 µM
[21] = second compound 1 µM, first compound 1 µM
[22] = second compound 1 µM, first compound 3.16 µM
[23] = second compound 1 µM, first compound 10 µM
[24] = second compound 3.16 µM, first compound 0.0316 µM
[25] = second compound 3.16 µM, first compound 0.1 µM
[26] = second compound 3.16 µM, first compound 0.316 µM
[27] = second compound 3.16 µM, first compound 1 µM
[28] = second compound 3.16 µM, first compound 3.16 µM
[29] = second compound 3.16 µM, first compound 10 µM
[30] = second compound 10 µM, first compound 0.0316 µM
[31] = second compound 10 µM, first compound 0.1 µM
[32] = second compound 10 µM, first compound 0.316 µM
[33] = second compound 10 µM, first compound 1 µM
[34] = second compound 10 µM, first compound 3.16 µM
[35] = second compound 10 µM, first compound 10 µM
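Note: exposure lasted 7 days after dosing on day 3 of spheroid growth.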

Row | SMILES | IC50 [1] [µM] | IC50 [2] [µM] | IC50 [3] [µM] | IC50 [4] [µM] | IC50 [5] [µM] | viability, T/C [6] [%] | viability, T/C [7] [%] | viability, T/C [8] [%] | viability, T/C [9] [%] | viability, T/C [10] [%] | viability, T/C [11] [%] | viability, T/C [12] [%] | viability, T/C [13] [%] | viability, T/C [14] [%] | viability, T/C [15] [%] | viability, T/C [16] [%] | viability, T/C [17] [%] | viability, T/C [18] [%] | viability, T/C [19] [%] | viability, T/C [20] [%] | other results
1 | Nc1ccn(C2OC(CO)C(O)C2(F)F)c(=O)n1 (configuration not stated) + CC(CO)NC(=O)c1cc(-c2ccc(Cl)cc2)nn(-c2cnn(C)c2)c1=O | > 10 | > 10 | > 10 | > 10 | > 10 | 82.9 | 91.6 | 95.4 | 88.3 | 58.7 | 85.3 | 82.2 | 99 | 97.8 | 84.8 | 85.8 | 86.3 | 96.8 | 76.4 | 113 | viability, T/C [21]: 77.7%; viability, T/C [22]: 75.7%; viability, T/C [23]: 72.1%; viability, T/C [24]: 81%; viability, T/C [25]: 91.8%; viability, T/C [26]: 108%; viability, T/C [27]: 52.7%; viability, T/C [28]: 63.4%; viability, T/C [29]: 63.5%; viability, T/C [30]: 63.2%; viability, T/C [31]: 124%; viability, T/C [32]: 87%; viability, T/C [33]: 72.7%; viability, T/C [34]: 78.2%; viability, T/C [35]: 76.6%
2 | Nc1ccccc1NC(=O)c1ccc(CNC(=O)OCc2cccnc2)cc1 + CC(CO)NC(=O)c1cc(-c2ccc(Cl)cc2)nn(-c2cnn(C)c2)c1=O | 2.92 | 4.73 | 3.32 | 4.38 | 3.9 | 79.3 | 101 | 90.8 | 78.8 | 48.2 | 20.5 | 76.8 | 86.9 | 113 | 83 | 68.3 | 16.8 | 92.8 | 87.2 | 110 | viability, T/C [21]: 97.5%; viability, T/C [22]: 51.4%; viability, T/C [23]: 18.7%; viability, T/C [24]: 73.6%; viability, T/C [25]: 66.8%; viability, T/C [26]: 88%; viability, T/C [27]: 105%; viability, T/C [28]: 61.2%; viability, T/C [29]: 21.8%; viability, T/C [30]: 110%; viability, T/C [31]: 114%; viability, T/C [32]: 104%; viability, T/C [33]: 84.1%; viability, T/C [34]: 61.1%; viability, T/C [35]: 8.65%
3 | CCN(c1cc(-c2ccc(CN3CCOCC3)cc2)cc(C(=O)NCc2c(C)cc(C)[nH]c2=O)c1C)C1CCOCC1 |  |  |  |  |  |  |  |  |  |  |  |  |  |  |  |  |  |  |  |  | viability, T/C (compound 0.00949 µM): 95.9% and 98.2% and 103%; viability, T/C (compound 0.03 µM): 89.1% and 111% and 60.8%; viability, T/C (compound 0.0949 µM): 106% and 89.9% and 90.6%; viability, T/C (compound 0.3 µM): 105% and 95.1% and 99.1%; viability, T/C (compound 0.949 µM): 104% and 115% and 88.1%; viability, T/C (compound 3 µM): 95.5% and 93.6% and 130%; IC50 (curve of compound): > 3 µM
